Molecular target: T1, HIPK3 (YAK1) (Homo sapiens, UniProt Q9H422)
T1 construct: purchased Thermo Fisher Scientific (Life Technologies) SelectScreen
Test: SelectScreen Z'LYTE
Assay type: biochemical
Summary of the method: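 Compound tested in SelectScreen activity assays, Z'LYTE for CSF1R, CDK1/cyclin B and MAP2K6 and Adapta for CAMK1. ATP for CAMK1 was listed as 10, and Km app was used for CSF1R. Results are expressed in percent.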

T1 sequence (Q9H422 whole entry): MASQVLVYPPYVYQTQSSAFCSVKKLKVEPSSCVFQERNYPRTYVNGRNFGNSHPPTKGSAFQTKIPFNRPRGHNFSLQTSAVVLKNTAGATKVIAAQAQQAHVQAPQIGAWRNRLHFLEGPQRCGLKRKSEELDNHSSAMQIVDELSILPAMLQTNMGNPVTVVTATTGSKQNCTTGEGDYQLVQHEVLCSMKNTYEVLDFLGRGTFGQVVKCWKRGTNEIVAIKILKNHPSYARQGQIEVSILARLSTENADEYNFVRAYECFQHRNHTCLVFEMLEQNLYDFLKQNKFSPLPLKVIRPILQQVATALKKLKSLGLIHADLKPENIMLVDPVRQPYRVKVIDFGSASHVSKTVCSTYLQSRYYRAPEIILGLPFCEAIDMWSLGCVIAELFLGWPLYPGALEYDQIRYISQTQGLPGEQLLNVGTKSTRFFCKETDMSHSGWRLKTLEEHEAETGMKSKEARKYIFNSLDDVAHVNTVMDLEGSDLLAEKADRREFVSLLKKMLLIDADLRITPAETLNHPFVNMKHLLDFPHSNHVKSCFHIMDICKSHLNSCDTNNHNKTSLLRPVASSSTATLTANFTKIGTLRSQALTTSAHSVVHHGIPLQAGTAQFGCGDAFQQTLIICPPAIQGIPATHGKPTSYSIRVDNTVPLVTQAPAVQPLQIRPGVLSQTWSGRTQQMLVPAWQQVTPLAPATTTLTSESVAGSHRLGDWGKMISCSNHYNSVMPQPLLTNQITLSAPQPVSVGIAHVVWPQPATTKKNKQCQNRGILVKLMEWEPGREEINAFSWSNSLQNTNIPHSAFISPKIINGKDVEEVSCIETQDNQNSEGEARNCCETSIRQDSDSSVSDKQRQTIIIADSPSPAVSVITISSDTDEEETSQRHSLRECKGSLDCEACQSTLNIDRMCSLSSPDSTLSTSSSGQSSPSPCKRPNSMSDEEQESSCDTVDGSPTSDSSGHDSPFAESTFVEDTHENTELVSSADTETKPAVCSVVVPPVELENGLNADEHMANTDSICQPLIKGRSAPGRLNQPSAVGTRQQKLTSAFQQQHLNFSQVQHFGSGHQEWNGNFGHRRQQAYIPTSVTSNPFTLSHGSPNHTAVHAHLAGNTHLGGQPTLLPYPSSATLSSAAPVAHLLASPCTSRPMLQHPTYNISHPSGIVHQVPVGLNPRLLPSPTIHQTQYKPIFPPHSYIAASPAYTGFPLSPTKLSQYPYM

CN(C(=O)CN1CCOCC1)c1ccc2sc3c(-c4cccc5c(=O)cc(N6CC7CCC(C6)O7)oc45)cccc3c2c1 [NU5455]
inhibition at 1 µM: 2.5%

— PMC6934184, “Selective DNA-PKcs inhibition extends the therapeutic index of localized radiotherapy and chemotherapy” (The Journal of Clinical Investigation, 2019)
